# Calls of active or inactive are those of the source. The rule behind the calls is not given here.
# Test system: rodent carcinogenicity bioassays, tumor incidence
# Assay: CCRIS carcinogenicity studies
# Text: The CCRIS database contains chemical records with carcinogenicity, mutagenicity, tumor promotion, and tumor inhibition test results. It was developed by the National Cancer Institute (NCI). Data are derived from studies cited in primary journals, current awareness tools, NCI reports, and other sources. Test results have been reviewed by experts in carcinogenesis and mutagenesis.
# CCRIS provides historical information from the years 1985 - 2011. It is no longer updated.
# This is an archive assay for CCRIS carcinogenicity studies.
smiles,measurement,setting,value
C1=CC2OC2C=C1 (stereo unspecified),carcinogen call,"Species: MOUSE, Strain/Sex: SWISS/FEMALE, Route: INTRAPERITONEAL, Dose: 0, 7.4, 18.6 UMOL ADMINISTERED AS 3 UNEQUAL DOSES (1/7, 2/7, AND 4/7 OF THE TOTAL DOSE) OVER A 2-WK PERIOD (STUDY DURATI, Dose: 0, 7.4, 18.6 UMOL ADMINISTERED AS 3 UNEQUAL DOSES (1/7, 2/7, AND 4/7 OF THE TOTAL DOSE) OVER A 2-WK PERIOD (STUDY DURATI",inactive; negative
same,carcinogen call,"Species: MOUSE, Strain/Sex: SWISS/MALE, Route: INTRAPERITONEAL, Dose: 0, 7.4, 18.6 UMOL ADMINISTERED AS 3 UNEQUAL DOSES (1/7, 2/7, AND 4/7 OF THE TOTAL DOSE) OVER A 2-WK PERIOD (STUDY DURATI, Dose: 0, 7.4, 18.6 UMOL ADMINISTERED AS 3 UNEQUAL DOSES (1/7, 2/7, AND 4/7 OF THE TOTAL DOSE) OVER A 2-WK PERIOD (STUDY DURATI",inactive; negative
CC(=O)CCNCN=O,carcinogen call,"Species: HAMSTER, Strain/Sex: SYRIAN/FEMALE, Route: SUBCUTANEOUS, Dose: 20.25, 40.5, 81MG/KG 1/WK FOR LIFE, Dose: 20.25, 40.5, 81MG/KG 1/WK FOR LIFE, Tumor Site: Type of Lesion: NASAL CAVITY: ADENOCARCINOMA, ORAL CAVITY (CHEEK POUCH): SQUAMOUS CELL PAPILLOMA, SQUAMOUS CELL CARCINOMA, COLON: CARCIN, Tumor Site: Type of Lesion: NASAL CAVITY: ADENOCARCINOMA, ORAL CAVITY (CHEEK POUCH): SQUAMOUS CELL PAPILLOMA, SQUAMOUS CELL CARCINOMA, COLON: CARCIN",active; positive
same,carcinogen call,"Species: HAMSTER, Strain/Sex: SYRIAN/MALE, Route: SUBCUTANEOUS, Dose: 17.63, 35.25, 70.5 MG/KG 1/WKFOR LIFE, Dose: 17.63, 35.25, 70.5 MG/KG 1/WKFOR LIFE, Tumor Site: Type of Lesion: NASAL CAVITY: ADENOCARCINOMA, ORAL CAVITY (CHEEK POUCH): SQUAMOUS CELL PAPILLOMA, SQUAMOUS CELL CARCINOMA, COLON: CARCIN, Tumor Site: Type of Lesion: NASAL CAVITY: ADENOCARCINOMA, ORAL CAVITY (CHEEK POUCH): SQUAMOUS CELL PAPILLOMA, SQUAMOUS CELL CARCINOMA, COLON: CARCIN",active; positive
Cc1cc(O)c(C(C)(C)C)cc1Sc1cc(C(C)(C)C)c(O)cc1C,carcinogen call,"Species: MOUSE, Strain/Sex: B6C3F1/FEMALE, Route: ORAL, Dose: 0, 250, 500, 1000 PPM IN DIET FOR 2 YR (STUDY DURATION: 104 WK), Dose: 0, 250, 500, 1000 PPM IN DIET FOR 2 YR (STUDY DURATION: 104 WK)",inactive; negative
same,carcinogen call,"Species: MOUSE, Strain/Sex: B6C3F1/MALE, Route: ORAL, Dose: 0, 250, 500, 1000 PPM IN DIET FOR 2 YR (STUDY DURATION: 104 WK), Dose: 0, 250, 500, 1000 PPM IN DIET FOR 2 YR (STUDY DURATION: 104 WK)",inactive; negative
same,carcinogen call,"Species: RAT, Strain/Sex: F344/FEMALE, Route: ORAL, Dose: 0, 500, 1000, 2500 PPM IN DIET FOR 2 YR (STUDY DURATION: 104 WK), Dose: 0, 500, 1000, 2500 PPM IN DIET FOR 2 YR (STUDY DURATION: 104 WK)",inactive; negative
same,carcinogen call,"Species: RAT, Strain/Sex: F344/MALE, Route: ORAL, Dose: 0, 500, 1000, 2500 PPM IN DIET FOR 2 YR (STUDY DURATION: 104 WK), Dose: 0, 500, 1000, 2500 PPM IN DIET FOR 2 YR (STUDY DURATION: 104 WK)",inactive; negative
NC(N)=Nc1nc(CSCCN=CNS(=O)(=O)c2ccc(Br)cc2)cs1,carcinogen call,"Species: MOUSE, Strain/Sex: CD-1/FEMALE, Route: ORAL, Dose: 0, 50, 200, 500 MG/KG FOR 18 MO (STUDY DURATION: 18 MO), Dose: 0, 50, 200, 500 MG/KG FOR 18 MO (STUDY DURATION: 18 MO)",inactive; negative
same,carcinogen call,"Species: MOUSE, Strain/Sex: CD-1/MALE, Route: ORAL, Dose: 0, 50, 200, 500 MG/KG FOR 18 MO (STUDY DURATION: 18 MO), Dose: 0, 50, 200, 500 MG/KG FOR 18 MO (STUDY DURATION: 18 MO)",inactive; negative
same,carcinogen call,"Species: RAT, Strain/Sex: SPRAGUE-DAWLEY/FEMALE, Route: ORAL, Dose: 0, 50, 200, 500 MG/KG FOR 13 MO THEN 0, 50, 150, 300, 500 MG/KG FOR DURATION OF STUDY (STUDY DURATION: 24 MO), Dose: 0, 50, 200, 500 MG/KG FOR 13 MO THEN 0, 50, 150, 300, 500 MG/KG FOR DURATION OF STUDY (STUDY DURATION: 24 MO)",inactive; negative
same,carcinogen call,"Species: RAT, Strain/Sex: SPRAGUE-DAWLEY/FEMALE, Route: ORAL, Dose: INITIALLY: 0, 50, 200, 500 MG/KG BW, THEN 0, 50, 150, 300, 500 (200 MG/KG DOSE LOWERED TO 150 MG/KG AFTER 13 MONTHS AND, Dose: INITIALLY: 0, 50, 200, 500 MG/KG BW, THEN 0, 50, 150, 300, 500 (200 MG/KG DOSE LOWERED TO 150 MG/KG AFTER 13 MONTHS AND",inactive; negative
same,carcinogen call,"Species: RAT, Strain/Sex: SPRAGUE-DAWLEY/MALE, Route: ORAL, Dose: 0, 50, 200, 500 MG/KG FOR 13 MO THEN 0, 50, 150, 300, 500 MG/KG FOR DURATION OF STUDY (STUDY DURATION: 24 MO), Dose: 0, 50, 200, 500 MG/KG FOR 13 MO THEN 0, 50, 150, 300, 500 MG/KG FOR DURATION OF STUDY (STUDY DURATION: 24 MO)",inactive; negative
same,carcinogen call,"Species: RAT, Strain/Sex: SPRAGUE-DAWLEY/MALE, Route: ORAL, Dose: INITIALLY: 0, 50, 200, 500 MG/KG BW, THEN 0, 50, 150, 300, 500 (200 MG/KG DOSE LOWERED TO 150 MG/KG AFTER 13 MONTHS AND, Dose: INITIALLY: 0, 50, 200, 500 MG/KG BW, THEN 0, 50, 150, 300, 500 (200 MG/KG DOSE LOWERED TO 150 MG/KG AFTER 13 MONTHS AND",inactive; negative
CC(C)NCC(O)c1ccc2ccccc2c1 (stereo unspecified),carcinogen call,"Species: MOUSE, Route: ORAL, Tumor Site: Type of Lesion: THYROID GLAND",active; positive
CCCCCCCCCCCCN(C)N=O,carcinogen call,"Species: RAT, Strain/Sex: F344/MALE, Route: GAVAGE, Dose: 60 MG/ML IN CORN OIL 2/WK FOR 30 WK, STUDY DURATION: 112 WK, Tumor Site: Type of Lesion: LUNG: ADENOCARCINOMA, FORESTOMACH: CARCINOMA, BLADDER, Tumor Site: Type of Lesion: LUNG: ADENOCARCINOMA, FORESTOMACH: CARCINOMA, BLADDER",active; positive
O=NN1CCC(=O)CC1,carcinogen call,"Species: RAT, Strain/Sex: F344/FEMALE, Route: ORAL, Dose: 0, 80 ML OF SOLUTION OF 115 MG/L IN NEUTRAL DEIONIZED DRINKING WATER 5 D/WK FOR 30 WK (STUDY DURATION: 60 WK), Tumor Site: Type of Lesion: NASAL CAVITY: ESTHESIONEUROEPITHELIOMA, FORESTOMACH: TUMOR, ESOPHAGUS: TUMOR, TONGUE: TUMOR, LIVER: HEPATOCELLULAR CARCI, Tumor Site: Type of Lesion: NASAL CAVITY: ESTHESIONEUROEPITHELIOMA, FORESTOMACH: TUMOR, ESOPHAGUS: TUMOR, TONGUE: TUMOR, LIVER: HEPATOCELLULAR CARCI",active; positive
CCNC(=O)Nc1ncc([N+](=O)[O-])s1,carcinogen call,"Species: MOUSE, Strain/Sex: B6C3F1/FEMALE, Route: ORAL, Dose: 0, 2500, 5000 PPM IN DIET FOR 94 WK (STUDY DURATION: 104 WK), Dose: 0, 2500, 5000 PPM IN DIET FOR 94 WK (STUDY DURATION: 104 WK), Tumor Site: Type of Lesion: LIVER: HEPATOCELLULAR ADENOMA OR CARCINOMA",equivocal
same,carcinogen call,"Species: MOUSE, Strain/Sex: B6C3F1/MALE, Route: ORAL, Dose: 0, 2500, 5000 PPM IN DIET FOR 94 WK (STUDY DURATION: 104 WK), Dose: 0, 2500, 5000 PPM IN DIET FOR 94 WK (STUDY DURATION: 104 WK), Tumor Site: Type of Lesion: LIVER: HEPATOCELLULAR CARCINOMA OR ADENOMA",active; positive
same,carcinogen call,"Species: RAT, Strain/Sex: F344/FEMALE, Route: ORAL, Dose: 0, 625, 1250 PPM IN DIET FOR 94 WK (STUDY DURATION: 104 WK), Dose: 0, 625, 1250 PPM IN DIET FOR 94 WK (STUDY DURATION: 104 WK), Tumor Site: Type of Lesion: INTEGUMENTARY SYSTEM (SKIN AND SUBCUTANEOUS TISSUE) AND MAMMARY GLAND: FIBROADENOMA OR CYSTADENOMA (NOS)",active; positive
same,carcinogen call,"Species: RAT, Strain/Sex: F344/MALE, Route: ORAL, Dose: 0, 625, 1250 PPM IN DIET FOR 94 WK (STUDY DURATION: 104 WK), Dose: 0, 625, 1250 PPM IN DIET FOR 94 WK (STUDY DURATION: 104 WK)",inactive; negative
